Results published in patent publication US8063225B2, “Tricyclic compound derivatives useful in the treatment of neoplastic diseases, inflammatory disorders and immunomodulatory disorders” (Chembridge Corporation, priority 2006, dated 2011).

Experiments:
[1] = biological target: T1, Alk (Homo sapiens, UniProt Q9UM73); test: Tyrosine kinase assay (Kinase-Glo or AlphaScreen), Alk; details: biochemical tyrosine kinase assay
T1 construct: 6×His- or GST-tagged kinase domain fragments of the corresponding RTKs expressed in baculovirus system; host or cells: baculovirus system
T1 sequence (Q9UM73 1116-1392 limits assumed, species assumed): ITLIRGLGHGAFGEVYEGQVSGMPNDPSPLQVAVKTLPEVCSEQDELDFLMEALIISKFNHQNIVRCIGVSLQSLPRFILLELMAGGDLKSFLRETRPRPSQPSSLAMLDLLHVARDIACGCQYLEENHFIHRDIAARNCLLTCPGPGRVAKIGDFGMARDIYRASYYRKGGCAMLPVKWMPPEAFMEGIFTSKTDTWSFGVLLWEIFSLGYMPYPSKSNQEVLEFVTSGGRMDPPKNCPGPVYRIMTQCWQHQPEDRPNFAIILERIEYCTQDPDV
Summary of the method: (§1)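 Baculovirus-expressed His- or GST-tagged kinase domains with poly(Glu-Tyr) substrate, 10 μM ATP, pH 7.5 Tris with MgCl2/MnCl2. Kinase-Glo: 60 min at 37 °C, residual ATP by luminescence; AlphaScreen: 30 min at RT, then anti-phosphotyrosine beads 60 min. Eight concentrations, 1 nM to 20 μM; IC50 by nonlinear regression.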

[2] = biological target: T2, Jak2 (Homo sapiens, UniProt O60674); test: Tyrosine kinase assay (Kinase-Glo or AlphaScreen), Jak2; details: biochemical tyrosine kinase assay
T2 construct: 6×His- or GST-tagged kinase domain fragments of the corresponding RTKs expressed in baculovirus system; host or cells: baculovirus system
T2 sequence (O60674 849-1124 limits assumed, species assumed): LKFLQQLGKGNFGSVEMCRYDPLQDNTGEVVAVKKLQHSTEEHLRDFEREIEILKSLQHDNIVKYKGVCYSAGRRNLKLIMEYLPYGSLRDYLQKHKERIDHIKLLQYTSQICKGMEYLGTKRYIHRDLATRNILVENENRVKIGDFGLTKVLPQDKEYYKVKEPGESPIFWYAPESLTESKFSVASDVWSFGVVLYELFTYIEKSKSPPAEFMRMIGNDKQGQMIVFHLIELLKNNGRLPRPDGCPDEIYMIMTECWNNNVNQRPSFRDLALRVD
Summary of the method: as §1

[3] = system: Ba/F3; test: Cell proliferation inhibition, Cell Titer-Glo, Ba/F3; type: cell-based; details: Mus musculus, BaF3; cell proliferation assay, Ba/F3 cells
Summary of the method: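 Ba/F3 cells were seeded at 2500-5000 cells per well in white, clear-bottomed 384-well culture plates and exposed to serial dilutions of test compounds for 3 days. Cell Titer-Glo Luminescent Cell Viability Assay (Promega) reagent, which measures total ATP as an indicator of metabolic activity, was added. Luminescence was read on a multiwell plate reader to derive IC50 values for inhibition of proliferation.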

[4] = system: Karpas-299; test: Cell proliferation inhibition, Cell Titer-Glo, Karpas-299; type: cell-based; details: Homo sapiens; cell proliferation assay, Karpas-299 cells
Summary of the method: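 Karpas 299 cells were seeded into white, clear-bottomed 384-well culture plates at 2500-5000 cells per well and exposed to serial dilutions of test compounds for about 3 days. Viable cell numbers were then measured with the Cell Titer-Glo Luminescent Cell Viability Assay (Promega), which detects total ATP, and IC50 values for proliferation inhibition were derived.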

[5] = system: K562; test: Cell proliferation inhibition, Cell Titer-Glo, K562; type: cell-based; details: Homo sapiens; cell proliferation assay, K562 cells
Summary of the method: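 K562 cells were seeded at 2500-5000 cells per well in white, clear-bottomed 384-well culture plates and treated with dilutions of test compounds for typically 3 days. Viable cells were quantified with the Cell Titer-Glo Luminescent Cell Viability Assay (Promega), which measures total ATP, read on a luminescence plate reader to derive IC50 values for proliferation inhibition.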

[6] = system: HEK293 (human normal embryonic kidney); test: Cell proliferation inhibition, Cell Titer-Glo, HEK293; type: cell-based; details: cell proliferation assay, HEK293 cells, read-out: HEK 293 IC50
Procedure: IGF1R and other tyrosine kinase inhibitors can inhibit the proliferation of certain cancer cell lines indicating their possible therapeutic utility for treating the corresponding cancer types. Cancer cell lines of interest and control normal lines, including CHO, HEK293, BA/F3, MM1, H929, COLO205, PC3, DU145, MCF7, Panc1, ACHN, Hep G2, H460, K562, TT, U87-G, CAOV-3, SK-MEL5, Karpas 299, are plated in white, clear-bottomed 384-well cell culture plates at 2500-5000 cells per well and supplied with dilutions of tested compounds After a desired period of time (typically 3 days), the number of viable cells is quantitated by using Cell Titer-Glo Luminescent Cell Viability Assay (Promega), a cell proliferation assay system based on detection of total amount of ATP present as a measure of cell metabolic activity. The plated cells are mixed with the Cell Titer-Glo developing reagent and counted in a luminescence multiwell plate reader according to the standard manufacturer's protocol to generate IC50 curves for cell proliferation inhibition.
IGF1R and other tyrosine kinase inhibitors can inhibit the proliferation of certain cancer cell lines indicating their possible therapeutic utility for treating the corresponding cancer types. Cancer cell lines of interest and control normal lines, including CHO, HEK293, BA/F3, COLO205, PC3, DU145, MCF7, Panc1, ACHN, Hep G2, H460, K562, TT, U87-MG, CAOV-3, SK-MEL5, Karpas 299 and human multiple myeloma cell lines H929, MM1s, MM1r, UTMC2, CPM2, KMS11, My5, KMS12PE, My7, JJN3, KMS18, U266, SKMM2, RPMI-8226 are plated in white, clear-bottomed 384-well cell culture plates at 2500-5000 cells per well and supplied with dilutions of tested compounds After a desired period of time (typically 3 days), the number of viable cells is quantitated by using Cell Titer-Glo Luminescent Cell Viability Assay (Promega), a cell proliferation assay system based on detection of total amount of ATP present as a measure of cell metabolic activity. The plated cells are mixed with the Cell Titer-Glo developing reagent and counted in a luminescence multiwell plate reader according to the standard manufacturer's protocol to generate IC50 curves for cell proliferation inhibition. Results are typically reported as percent of growth (% viability =(OD72h(compound)−ODday0))/(OD72h(no compound)−ODday0). Alternatively, viable cells are quantitated by using the conventional colorimetric MTT assay. The MTT assay is based on the cleavage of the yellow tetrazolium salt MTT to purple formazan crystal by metabolic active cells. The formazan is then solubilized, and the concentration determined by optical density at 570 nm. The cells plated and incubated with a compound as described above are supplemented with the solution of MTT and incubated for 2-3 hours. The growth medium is removed and dimethyl sulfoxide is added into each well to dissolve the formazan. The absorbance is measured on an ELISA plate reader with a test wavelength of 570 nm and a background subtraction wavelength of 630 nm to obtain sample signal (OD570-OD630). […] The results are reported in terms of IC50 value for a particular compound and a cell line in the standard 3-day proliferation assay using Cell Titer-Glo. […] The results are reported in terms of IC50 value for a particular compound and a cell line in the standard 3-day proliferation assay using MTT assay.

SMILES | IC50 [1] [µM] | IC50 [2] [µM] | IC50 [3] [µM] | IC50 [4] [µM] | IC50 [5] [µM] | IC50 [6] [µM]
CN1CCC(N2C(=O)c3cc4nc(-c5c(N[C@H](CO)Cc6c[nH]cn6)cc[nH]c5=O)[nH]c4cc3C2=O)CC1 [compound 2] | > 15 | > 15 | > 15 | 5 to 15 | 5 to 15 | 
O=C1c2cc3nc(-c4c(NC[C@@H](O)c5cccc(Cl)c5)cc[nH]c4=O)[nH]c3cc2C(=O)N1[C@@H]1CN2CCC1CC2 [compound 33] | 0.5 to 5 | 0.5 to 5 | > 15 | > 15 | 0.5 to 5 | 
O=C1c2cc3nc(-c4c(NC[C@@H](O)c5cccc(Cl)c5)cc[nH]c4=O)[nH]c3cc2C(=O)N1[C@H]1CN2CCC1CC2 [compound 34] | 0.5 to 5 | 0.5 to 5 | > 15 | > 15 | > 15 | 
Cc1cc(C)c(OC[C@H](O)CNc2cc[nH]c(=O)c2-c2nc3cc4c(cc3[nH]2)C(=O)N(C2CCN(C)CC2)C4=O)c(CS(C)(=O)=O)c1 [compound 84] | 0.5 to 5 | 0.5 to 5 | > 15 | > 15 | > 15 | 
CN1CCC(N2C(=O)c3cc4nc(-c5c(NC[C@@H](O)COc6cccc(-c7ccccc7)c6)cc[nH]c5=O)[nH]c4cc3C2=O)CC1 [compound 89] | 0.5 to 5 | 0.5 to 5 | 5 to 15 | 0.5 to 5 | 5 to 15 | 
CN1CCC(N2C(=O)c3cc4nc(-c5c(NC[C@@H](O)COc6cccc(OC(F)(F)C(F)F)c6)cc[nH]c5=O)[nH]c4cc3C2=O)CC1 [compound 91] | 0.5 to 5 | 0.5 to 5 | > 15 | 5 to 15 | > 15 | 
Cc1cc(C)n(C[C@H](O)CNc2cc[nH]c(=O)c2-c2nc3cc4c(cc3[nH]2)C(=O)N(C2CCN(C)CC2)C4=O)n1 [compound 92] | > 15 | 5 to 15 | > 15 | > 15 | > 15 | 
Cc1cc(C)c(OC[C@H](O)CNc2cc[nH]c(=O)c2-c2nc3cc4c(cc3[nH]2)C(=O)N(C2CCN(C)CC2)C4=O)c(C)c1 [compound 98] | 0.5 to 5 | 5 to 15 | > 15 | > 15 | > 15 | 
Cc1ccc(OC[C@H](O)CNc2cc[nH]c(=O)c2-c2nc3c(C)c4c(cc3[nH]2)C(=O)N(C2CCN(C)CC2)C4=O)c(C)c1 [compound 110] | 0.5 to 5 | 0.5 to 5 | 5 to 15 | 0.5 to 5 | 5 to 15 | 
CCN1CCC(N2C(=O)c3cc4nc(-c5c(NC[C@@H](O)COc6ccc(C)cc6C)cc[nH]c5=O)[nH]c4cc3C2=O)CC1 [compound 143] | < 0.5 | 0.5 to 5 |  |  |  | > 15

Now from value to compound, other results behind:

IC50 [1] [µM] | IC50 [2] [µM] | IC50 [3] [µM] | IC50 [4] [µM] | IC50 [5] [µM] | SMILES | IC50 [6] [µM]
0.5 to 5 | 0.5 to 5 |  |  |  | COc1cccc(OCC(O)CNc2cc[nH]c(=O)c2-c2nc3cc4c(cc3[nH]2)C(=O)N(C2CCN(C)CC2)C4=O)c1 (centres unmarked) [compound 6] | 
> 15 | 0.5 to 5 |  |  | 5 to 15 | CC(C)(CO)CN1C(=O)c2cc3nc(-c4c(NC[C@@H](O)c5cccc(Cl)c5)cc[nH]c4=O)[nH]c3cc2C1=O [compound 26] | 
5 to 15 | 5 to 15 | > 15 | > 15 | > 15 | O=C1c2cc3nc(-c4c(NC[C@@H](O)c5cccc(Cl)c5)cc[nH]c4=O)[nH]c3cc2C(=O)N1CCc1ccncc1 [compound 28] | 
> 15 | > 15 | 5 to 15 | 5 to 15 | 0.5 to 5 | O=C1c2cc3nc(-c4c(NC[C@@H](O)c5cccc(Cl)c5)cc[nH]c4=O)[nH]c3cc2C(=O)N1C[C@@H]1CCCO1 [compound 29] | 
> 15 | > 15 | 0.5 to 5 | > 15 | > 15 | Cc1ncsc1CCN1C(=O)c2cc3nc(-c4c(NC[C@@H](O)c5cccc(Cl)c5)cc[nH]c4=O)[nH]c3cc2C1=O [compound 32] | 
5 to 15 | 0.5 to 5 | > 15 | > 15 | > 15 | Cc1ccc(OCC(O)CNc2cc[nH]c(=O)c2-c2nc3cc4c(cc3[nH]2)C(=O)N(CC2CCN(CCO)CC2)C4=O)c(C)c1 (centres unmarked) [compound 37] | 
5 to 15 | 0.5 to 5 | 5 to 15 | > 15 | 5 to 15 | Cc1ccc(OC[C@@H](O)CNc2cc[nH]c(=O)c2-c2nc3cc4c(cc3[nH]2)C(=O)N(C2CCN(C)CC2)C4=O)c(C)c1 [compound 64] | 
0.5 to 5 | 0.5 to 5 | > 15 | 5 to 15 | 5 to 15 | CN1CCC(N2C(=O)c3cc4nc(-c5c(NC[C@@H](O)COc6cccc7ccccc67)cc[nH]c5=O)[nH]c4cc3C2=O)CC1 [compound 87] | 
0.5 to 5 | 0.5 to 5 | 5 to 15 | 5 to 15 | 5 to 15 | CN1CCC(N2C(=O)c3cc4nc(-c5c(NC[C@@H](O)COc6ccc7ccccc7c6)cc[nH]c5=O)[nH]c4cc3C2=O)CC1 [compound 88] | 
> 15 | 5 to 15 | > 15 | > 15 | > 15 | CN1CCC(N2C(=O)c3cc4nc(-c5c(NC[C@@H](O)COc6cccc(Cl)c6F)cc[nH]c5=O)[nH]c4cc3C2=O)CC1 [compound 96] | 
5 to 15 | 0.5 to 5 | > 15 | > 15 | > 15 | Cc1ccc(OC[C@H](O)CNc2cc[nH]c(=O)c2-c2nc3cc4c(cc3[nH]2)C(=O)N(C2CCN(C)CC2)C4=O)cc1Cl [compound 99] | 
0.5 to 5 | 0.5 to 5 | 5 to 15 | > 15 | 5 to 15 | Cc1ccc(OC[C@@H](O)CNc2cc[nH]c(=O)c2-c2nc3cc4c(cc3[nH]2)C(=O)N([C@H]2CCN(C)C2)C4=O)c(C)c1 [compound 106] | 
0.5 to 5 | 0.5 to 5 | > 15 | > 15 | > 15 | Cc1ccc(OC[C@@H](O)CNc2cc[nH]c(=O)c2-c2nc3cc4c(cc3[nH]2)C(=O)N([C@@H]2CCN(C)C2)C4=O)c(C)c1 [compound 107] | 
0.5 to 5 | 0.5 to 5 | 5 to 15 | 0.5 to 5 | > 15 | Cc1ccc(Cl)c(C)c1OC[C@H](O)CNc1cc[nH]c(=O)c1-c1nc2cc3c(cc2[nH]1)C(=O)N(C1CCN(C)CC1)C3=O [compound 111] | 
